According to patent US20240174690A1, “ANNULATED 2-AMINO-3-CYANO THIOPHENES AND DERIVATIVES FOR THE TREATMENT OF CANCER” (BOEHRINGER INGELHEIM INTERNATIONAL GMBH, priority 2021, published 2024):
Converted amounts (≈) assume the structure as drawn. Like-named read-outs stand apart in the source and are kept apart here.

What was measured:
[1] = test system: KRAS G12V-dependent Ba/F3 cells; experiment: Ba/F3 proliferation assay, KRAS G12V; assay type: cell-based; settings: Mus musculus, BaF3, 72 h, AlamarBlue;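 also: proliferation IC50 in KRAS G12V-dependent Ba/F3 cells read by AlamarBlue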
Description: (§1) Plasmids containing KRASG12 mutants (i.e. […], G12C, G12V) are obtained from GeneScript. To generate KRASG12-dependent Ba/F3 models, Ba/F3 cells are transduced with retroviruses containing vectors that harbor KRASG12 isoforms. Platinum-E cells (Cell Biolabs) are used for retrovirus packaging. Retrovirus is added to Ba/F3 cells. To ensure infection, 4 μg/mL polybrene is added and cells are spinfected. […] Cells with an infection efficiency of 10% to 20% are further cultivated and puromycin selection with 1 μg/mL is initiated. As a control, parental Ba/F3 cells are used to show selection status. Selection is considered successful when parental Ba/F3 cells cultures died. To evaluate the transforming potential of KRASG12 mutations, the growth medium is no longer supplemented with IL-3. Ba/F3 cells harboring the empty vector are used as a control. Approximately ten days before conducting the experiments, puromycin is left out.
(§2) Compounds are added using an Access Labcyte Workstation with a Labcyte Echo 550 or 555 accoustic dispenser. All treatments are performed in technical duplicates. […] AlamarBlue™ (ThermoFisher), a viability stain, is added and fluorescence measured in the PerkinElmer Envision HTS Multilabel Reader. The raw data are imported into and analyzed with the Boehringer Ingelheim proprietary software MegaLab (curve fitting based on the program PRISM, GraphPad Inc.).

[2] = test system: KRAS G12D-dependent Ba/F3 cells; experiment: Ba/F3 proliferation assay, KRAS G12D; assay type: cell-based; settings: Mus musculus, BaF3, 72 h, AlamarBlue
Description: as §1, §2

NCI-H358 cells = experiment: NCI-H358 CTG proliferation assay (120 h) (NSCLC, G12C); assay type: cell-based, human; settings: Homo sapiens, assay 2, CTG, read-out: H358 (assay 2) IC50
Description: NCI-H358 CTG Proliferation Assay (120 h) (NSCLC, G12C)
NCI-H358 cells (ATCC No. CRL-5807) are dispensed into white bottom opaque 96 well plates (Perkin Elmer cat no. 5680) at a density of 2000 cells per well in 100 μL RPMI-1640 ATCC-Formulation (Gibco #A10491)+10% FCS (fetal calf serum) (assay 1) or into black 384-well plates, flat and clear bottom (Greiner, PNr. 781091) at a density of 200 cells per well in 60 μl RPMI-1640 ATCC-Formulation (Gibco #A10491)+10% FCS (fetal calf serum) (assay 2). […] Compounds (10 mM stock in DMSO) are added at logarithmic dose series using the HP Digital Dispenser D300 (Tecan) (assay 1) or the ECHO acoustic liquid handler system (Beckman Coulter) (assay 2), normalizing for added DMSO and including DMSO controls. For the TO time point measurement, untreated cells are analyzed at the time of compound addition. Plates are incubated for 120 h, and cell viability is measured using CellTiter-Glo luminescent cell viability reagent (Promega product code G7570). Viability (stated as percent of control) is defined as relative luminescence units RLU of each well divided by the RLU of cells in DMSO controls. IC50 values are determined from viability measurements by non-linear regression using a four parameter model.

[3] = test system: KRAS G12C-dependent Ba/F3 cells; experiment: Ba/F3 proliferation assay, KRAS G12C; assay type: cell-based; settings: Mus musculus, BaF3, 72 h, AlamarBlue
Description: as §1, §2

[4] = Plasma protein binding assay (PPB), equilibrium dialysis, 10% FCS in PBS; assay type: in vitro ADME; settings: bovine, read-out: PPB 10% FCS (% fu)
Description: Binding of test compounds to plasma was determined using equilibrium dialysis (ED) and quantitative mass spectrometry interfaced with liquid chromatography (LC-MS). In brief, ED was performed with dialysis devices consisting of two chambers separated by a semipermeable membrane with a molecular weight cut-off of 5-10 kg/mol. One chamber was filled with 10% FCS in PBS containing 1-10 μmol/L test compound and the other chamber was filled with phosphate-buffer saline (PBS) with or without dextran. The dialysis chamber was incubated for 3-5 hours at 37° C. After incubation, protein was precipitated from aliquots of each chamber and the concentration of test compound in the supernatant of the plasma-containing compartment (Cserum) and of the buffer-containing compartment (Cbuffer) was determined by LC-MS. The fraction of unbound test compound (not bound to plasma) (fu) was calculated according to the following equation: […]

[5] = Metabolic (microsomal) stability assay, human liver microsomes (HLM); assay type: in vitro ADME; settings: predicted clearance as percent of liver blood flow, 1 μM
Description: The metabolic degradation of the test compound is assayed at 37° C. with pooled liver microsomes (mouse (MLM), rat (RLM) or human (HLM)). The final incubation volume of 48 μL pertime point contains TRIS buffer (pH 7.5; 0.1 M), magnesium chloride (6.5 mM), microsomal protein (0.5 mg/mL for mouse/rat, 1 mg/mL for human specimens) and the test compound at a final concentration of 1 μM. Following a short preincubation period at 37° C., the reactions are initiated by addition of 12 μL beta-nicotinamide adenine dinucleotide phosphate, reduced form (NADPH, 10 mM) and terminated by transferring an aliquot into solvent after different time points (0, 5, 15, 30, 60 min). Additionally, the NADPH-independent degradation is monitored in incubations without NADPH, terminated at the last time point by addition of acetonitrile. The quenched incubations are pelleted by centrifugation (4,000 rpm, 15 min). An aliquot of the supernatant is assayed by LC-MS/MS to quantify the concentration of parent compound in the individual samples.
In vitro intrinsic clearance (CLint, in vitro) is calculated from the time course of the disappearance of the test drug during the microsomal incubation. Each plot is fitted to the first-order elimination rate constant as C(t)═C0*exp(−ke*t), where C(t) and C0 are the concentration of unchanged test drug at incubation time t and that at preincubation and ke is the disappearance rate constant of the unchanged drug. Subsequently, CLint in vitro (μL min^−1·amount protein) values are converted to predicted CLint,in vivo (mL min^−1 kg^−1) from incubation parameters according to the equation CLint, in vivo=CLint, in vitro×(incubation volume (ml)/amount protein (mg))×(amount protein (mg)/g liver tissue)×(liver weight/body wt.).
For better across species comparison the predicted clearance is expressed as percent of the liver blood flow [% QH] (mL min^−1·kg^−1) in the individual species. In general, high stability (corresponding to low % QH) of the compounds across species is desired.

KRAS (G12D)::SOS1 = KRAS (G12D)::SOS1 (Homo sapiens (Human), UniProt P01116, G12D); experiment: KRAS::SOS1 AlphaScreen binding assay, KRAS G12D
Sequence of KRAS (G12D)::SOS1 (P01116 other isoform, or with tags, fused parts or gaps G12D): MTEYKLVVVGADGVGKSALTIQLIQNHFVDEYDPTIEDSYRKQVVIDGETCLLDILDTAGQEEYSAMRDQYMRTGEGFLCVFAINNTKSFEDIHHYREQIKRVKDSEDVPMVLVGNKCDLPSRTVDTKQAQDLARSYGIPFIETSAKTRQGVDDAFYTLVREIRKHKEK
Text: (§3) This assay can be used to examine the potency with which compounds according to the invention binding to (mutated) KRAS inhibit the protein-protein interaction between SOS1 and (mutated) KRAS e.g., KRAS WT, KRAS G12C, KRAS G12D, KRAS G12V, KRAS G13D. […] Low IC50 values in this assay setting are indicative of strong inhibition of protein-protein interaction between SOS1 and KRAS:
(§4) These assays measure the inhibitory effect of compounds on KRAS mutant protein-protein interactions using the Alpha Screen technology by Perkin Elmer.
(§5) The following (mutant) enzyme forms of KRAS and interacting proteins are used in these assays at the given concentrations: • KRAS (G12D) 1-169, N-terminal 6His-tag, C-terminal avi-tag (Xtal BioStructures, Inc.); final assay concentration 10 nM and SOS1 564-1049, N-terminal 229 GST-tag, TEV cleavage site (Viva Biotech Ltd); final assay concentration 5 nM; • KRAS (G12C) 1-169, N-terminal 6His-tag for purification, cleaved off, C-terminal avi-tag, biotinylated, mutations: C51S, C80L, C118S (in house); final assay concentration 7.5 nM and SOS1 564-1049, N-terminal 229 GST-tag, TEV cleavage site (Viva Biotech Ltd); final assay concentration 5 nM; • KRAS (G12V) 1-169, N-terminal 6His-tag for purification, cleaved off, C-terminal avi-tag, biotinylated, TEV cleavage site, mutation: C118S, GDP loaded (in house); final assay concentration 10 nM and SOS1 564-1049, N-terminal 229 GST-tag, TEV cleavage site (Viva Biotech Ltd); final assay concentration 10 nM; • KRAS (G13D) 1-169, N-terminal 6His-tag for purification, cleaved off, C-terminal avi-tag, biotinylated, TEV cleavage site, mutation: C118S, GDP loaded (in house); final assay concentration 10 nM and SOS1 564-1049, N-terminal 229 GST-tag, TEV cleavage site (Viva Biotech Ltd); final assay concentration 10 nM; • KRAS (WT) 1-169, N-terminal 6His-tag for purification, cleaved off, C-terminal avi-tag, biotinylated, TEV cleavage site, mutation: C118S, GDP loaded (in house); final assay concentration 10 nM and SOS1 564-1049, N-terminal 229 GST-tag, TEV cleavage site (Viva Biotech Ltd); final assay concentration 10 nM.
(§6) Test compounds dissolved in DMSO are dispensed onto assay plates (Proxiplate 384 PLUS, white, PerkinElmer; 6008289) using an Access Labcyte Workstation with the Labcyte Echo 55×. For the chosen highest assay concentration of 100 μM, 150 nL of compound solution are transferred from a 10 mM DMSO compound stock solution. A series of eleven fivefold dilutions per compound are transferred to the assay plate, compound dilutions are tested in duplicates. DMSO are added as backfill to a total volume of 150 nL.
(§7) The assays run on a fully automated robotic system in a darkened room below 100 Lux. To 150 nl of compound dilution 10 μl of a mix including KRAS mutant protein, SOS1 (final assay concentrations see above) and GDP nucleotide (Sigma G7127; final assay concentration 10 μM) in assay buffer (1×PBS, 0.1% BSA, 0.05% Tween 20) are added into columns 1-24.
(§8) After 30 minutes incubation time 5 μl of Alpha Screen bead mix in assay buffer are added into columns 1-23. Bead mix consists of AlphaLISA Glutathione Acceptor Beads (PerkinElmer, Cat No AL109) and AlphaScreen Streptavidin Donor Beads (PerkinElmer Cat No 6760002) in assay buffer at a final assay concentration of 10 μg/ml each.
(§9) Plates are kept at room temperature in a darkened incubator. After an additional 60 minutes incubation time the signal is measured in a PerkinElmer Envision HTS Multilabel Reader using the AlphaScreen specs from PerkinElmer.
(§10) Each plate contains up to 16 wells of a negative control depending on the dilution procedure (platewise or serial) (DMSO instead of test compound; with KRAS mutant::SOS1 GDP mix and bead mix; column 23) and 16 wells of a positive control (DMSO instead of test compound; with KRAS mutant::SOS1 GDP mix w/o bead mix; column 24).
(§11) As internal control known inhibitors of KRAS mutant::SOS1 interaction can be measured on each compound plate. […]

[6] = Solubility measurement (DMSO solution method), McIlvaine buffer pH 4.5 or 6.8; assay type: physicochemical; settings: aqueous buffer, kinetic from dmso stock, DMSO stock diluted to 250 μM, 24 h shaking at ambient temperature
Description: The DMSO solution is diluted with an aqueous medium (Mcllvaine buffer with pH=4.5 or 6.8) to a final concentration of 250 μM. After 24 h of shaking at ambient temperature a potentially formed precipitate is removed by filtration. The concentration of the test compound in the filtrate is determined by LC-UV methods by calibrating the signal to the signal of a reference solution with complete dissolution of the test compound in acetonitrile/water (1:1) with known concentration.

KRAS (G12C)::SOS1 = KRAS (G12C)::SOS1 (Homo sapiens (Human), UniProt P01116, C118S/C51S/C80L/G12C); experiment: KRAS::SOS1 AlphaScreen binding assay, KRAS G12C
Sequence of KRAS (G12C)::SOS1 (P01116 other isoform, or with tags, fused parts or gaps G12C/C51S/C80L/C118S): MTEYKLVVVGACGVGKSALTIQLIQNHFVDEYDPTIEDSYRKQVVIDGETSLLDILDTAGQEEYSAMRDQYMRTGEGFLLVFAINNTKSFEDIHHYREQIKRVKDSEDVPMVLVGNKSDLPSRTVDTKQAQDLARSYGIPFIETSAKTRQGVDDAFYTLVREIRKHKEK
Text: as §3, §4, §5, §6, §7, §8, §9, §10, §11

IC50 [1]	IC50 [2]	IC50 (NCI-H358 cells)	IC50 [3]	fraction unbound [4]	HLM QH [5]	IC50 (KRAS (G12D)::SOS1)	solubility at 24 h ([6]; McIlvaine buffer pH 4.5, read-out: solubility pH 4.5)	solubility at 24 h ([6]; McIlvaine buffer pH 6.8, read-out: solubility pH 6.8)	IC50 (KRAS (G12C)::SOS1)	Compound
401 nM	72 nM	1720 nM	403 nM	0.48	<24%					C[C@H](Oc1cc(N2CCN3CCC[C@]3(C)C2)nc(-c2noc3c2CCC[C@@]32CCCc3sc(N)c(C#N)c32)n1)[C@@H]1CCCN1C [II-52]
8 nM	54 nM	134 nM	15 nM	0.42	59%					C[C@H](Oc1cc(-n2ccnn2)nc(-c2noc3c2CCC[C@@]32CCCc3sc(N)c(C#N)c32)n1)[C@@H]1CCCN1C [II-108]
			289 nM		32%	21 nM	3 µg/mL (≈ 6.13 µM)	< 1 µg/mL	32 nM	Cc1cc(-c2onc3c2CCC[C@@]32CCCc3sc(N)c(C#N)c32)nc(N2CCCNC[C@@H]2C)n1 [I-35]
			830 nM		51%	36 nM			888 nM	C[C@H]1CN(C)CCCN1c1nc(-c2noc3c2CCC[C@@]32CCCc3sc(N)c(C#N)c32)cc(N2CCN(C)C3(CC3)C2)n1 [II-172]
